Data published in ChEMBL document CHEMBL3044717, “Synthesis and QSAR modeling 1-[3-methyl-2-(aryldiazenyl)-2H-aziren-2-yl]ethanones as potential antibacterial agents” (2013).

Key:
Format in all cases: functional
[1] = tested on: Bacillus subtilis; test: Antibacterial activity against Bacillus subtilis ATCC 6633 assessed as growth inhibition after 16-24 hr by two-fold serial dilution method
[2] = tested on: Staphylococcus aureus; test: Antibacterial activity against Staphylococcus aureus ATCC 2943 assessed as growth inhibition after 16-24 hr by two-fold serial dilution method
[3] = tested on: Brevundimonas diminuta; test: Antibacterial activity against Brevundimonas diminuta MTCC 3361 assessed as growth inhibition after 16-24 hr by two-fold serial dilution method
[4] = tested on: Escherichia coli; test: Antibacterial activity against Escherichia coli ATCC 13607 assessed as growth inhibition after 16-24 hr by two-fold serial dilution method

Structure (SMILES) | -logMIC [1] | -logMIC [2] | -logMIC [3] | -logMIC [4]
CC(=O)C1(/N=N/c2ccccc2Cl)N=C1C (configuration not stated) | 4.348 | 4.317 | 4.354 | –
CC(=O)C1(/N=N/c2ccc(C)cc2)N=C1C (configuration not stated) | 4.298 | 4.178 | – | –
CC(=O)C1(/N=N/c2ccc(Cl)cc2)N=C1C (configuration not stated) | 4.078 | 4.014 | 4.096 | –
CC(=O)C1(/N=N/c2cccc(C(=O)O)c2)N=C1C (configuration not stated) | 4.446 | 4.178 | 4.138 | 4.223
CC(=O)C1(/N=N/c2ccc(C(=O)O)cc2)N=C1C (configuration not stated) | 4.376 | 4.358 | 4.243 | 4.341
CC(=O)C1(/N=N/c2cccc(C)c2)N=C1C (configuration not stated) | 4.213 | 4.298 | – | –
CC(=O)C1(/N=N/c2ccc(Br)cc2)N=C1C (configuration not stated) | 4.401 | 4.433 | – | 4.414
COc1cccc(/N=N/C2(C(C)=O)N=C2C)c1 (configuration not stated) | 4.366 | 4.328 | 4.377 | –
CC(=O)C1(/N=N/c2cccc([N+](=O)[O-])c2)N=C1C (configuration not stated) | 4.245 | 4.421 | 4.336 | 4.257
COc1ccccc1/N=N/C1(C(C)=O)N=C1C (configuration not stated) | 4.056 | 4.119 | 4.072 | –
CC(=O)C1(/N=N/c2ccccc2C)N=C1C (configuration not stated) | 4.378 | 4.339 | – | 4.378
CC(=O)C1(/N=N/c2ccc([N+](=O)[O-])cc2)N=C1C (configuration not stated) | 4.221 | 4.492 | 4.287 | 4.253
CC(=O)C1(/N=N/c2ccccc2)N=C1C (configuration not stated) | 4.026 | 4.032 | 4.024 | –
CC(=O)C1(/N=N/c2cccc(Cl)c2)N=C1C (configuration not stated) | 4.315 | 4.324 | 4.325 | –
CC(=O)C1(/N=N/c2cccc(Br)c2)N=C1C (configuration not stated) | 4.425 | 4.457 | – | 4.441
